Test results taken from PMC7618036, “An oral heme oxygenase inhibitor targets immunosuppressive perivascular macrophages in preclinical models of cancer” (Science translational medicine, 2025).

Tested on: MMTV-PyMT mice
Test: Toxicity evaluation of MMTV-PyMT mice after 21 days of treatment
Type: in vivo, mouse
Settings: KCL-HO-1i p.o. and/or gemcitabine i.p.
Description: (D-G) The MMTV-PyMT mice in (B) were evaluated for evidence of toxicity, including weight change from treatment initiation (D), end of treatment (day 21) plasma ratio of AST:ALT enzymes (E), blood circulating immune cells assessed using flow cytometry (F) and pathology assessment of inflammatory cell infiltrate in the lungs alongside an additional cohort or WT non-tumor bearing mice given dual treatment for 21 days and then assessed at treatment cessation or 30 days after treatment cessation (G). Image in panel (A) was created using BioRender. Bar charts show the mean, error bars SD, and the dots show individual data points from individual tumors and mice. Line charts display the mean and SEM. Gemc.; gemcitabine. * P<0.05, ** P<0.01.
Tissue sections (3µm) were cut from FFPE tissues from the brain, lung, heart, kidney, and liver of treated animals and mounted onto Plus^+ Frost slides (Solmedia). […] Tissue sections were initially examined unblinded and then re-evaluated blinded to confirm the significant findings ([77]). Findings in the tissue were scored using a non-linear semiquantitative grading system from 0 to 5 where 0 = no significant change and 5 = whole organ or tissue affected ([78]). Where grading was not appropriate, findings were scored ‘present’ (P) if seen. In addition, an approximate number of lung metastases was recorded in parentheses after P if present ([78]). […]

SMILES: Nc1ccn([C@@H]2O[C@H](CO)[C@@H](O)C2(F)F)c(=O)n1 [gemcitabine]
- immune cell composition of the blood: unaffected
